In the METLIN SMRT retention time set (Domingo-Almenara et al. 2019):

Experiment: gradient 5% acetonitrile 3 min, to 50% in 2 min, to 85% in 15 min, held 3 min, 100 µL/min
Conditions: column: Zorbax Extend-C18 2.1 x 50 mm; eluents: water / acetonitrile, 0.1% formic acid
Summary of the method: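 Pure standards were analyzed in mixtures of ~100 molecules using HPLC coupled to a quadrupole time-of-flight mass spectrometer, in both positive and negative ionization mode. Separation used a Zorbax Extend-C18 column (2.1 × 50 mm, 1.8 μm) at 100 μL/min, with water and acetonitrile each containing 0.1% formic acid. Dead and dwell volumes were 40 μL and 900 μL, and data were collected over 3 months. Retention time was read from computationally picked adduct peaks, each inspected manually.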

SMILES	RP-LC retention time
COc1cc(NC(=O)NC(C)C)c2ncccc2c1	757 s
Cc1cccc(-c2nc(Cc3noc(CNC(=O)c4ccccc4)n3)c(C)o2)c1	924 s
CN1C(=O)C(CC(=O)NCc2ccccn2)Sc2ncccc21 (centres undefined)	762 s
O=C(Cn1c(-c2ccc(F)cc2)nc2ccccc21)N1CCCCC1	675 s
Cc1[nH]nc(-c2c(C)sc(C)c2S(=O)(=O)Nc2ccc(F)c(Cl)c2)c1C	1140 s
CCc1cccc(NC(=O)Cc2csc3nc(-c4ccc(C)c(C)c4)cn23)c1	962 s
CN1CCN(CCCNC(=O)c2cc(-c3cccnc3)nc3ccc(Br)cc23)CC1	542 s
O=C(c1ccccc1Br)N1CCc2nc(-c3ccccc3)ncc2C1	963 s
COc1ccc(-c2noc(C3CC(=O)N(c4ccc(C)c(C)c4)C3)n2)cc1OC (centres undefined)	928 s
Cc1cc(C)cc(S(=O)(=O)N2CCc3c(c(-c4nnc(-c5ccc(F)cc5)o4)nn3C)C2)c1	812 s
COc1ccc(NC(=O)c2nnc(CSCC(=O)NCCc3c[nH]c4ccccc34)s2)cc1	859 s
O=C(NCCCN1CCCCCC1)C1CCCN(c2nc3cccnc3s2)C1 (centres undefined)	595 s
Cc1cc(-c2ccc(C)c(S(=O)(=O)N3CCN(c4ccccn4)CC3)c2)on1	719 s
CCCn1cc(CCNC(=O)Nc2ccc(C)cc2Cl)c2cccnc21	886 s
COC(=O)c1cnn2c(C)c(Cc3ccccc3)c(C)nc12	835 s
O=C(CSCc1ccccc1)NCC1(CO)CC1	660 s
COc1ccc(-c2nn(-c3ccccc3)cc2C(=O)O)cc1N	661 s
Cc1ccc(NC(=O)c2c(C)sc3ncnc(N4CCCC(C)C4)c23)cc1F (centres undefined)	1290 s
CCN1CCCc2cc(C(=O)NC3CCCCC3)sc21	1010 s
CCc1cc(=O)n(CC(=O)Nc2ccc(Cl)c(Cl)c2)c(-n2nc(C)cc2C)n1	1060 s

SMILES	RP-LC retention time
CCC(=O)n1nc(C)c(S(=O)(=O)N2CCOCC2)c1C	848 s
Cc1cccc2c(=O)n(C3CCN(C(=O)Nc4ccc5c(c4)OCCO5)CC3)cnc12	766 s
C=C(C)Cn1c(C2CC(=O)N(c3ccccc3Br)C2)nc2ccccc21 (centres undefined)	708 s
Cc1cc(NC(=O)c2cnc3c(c2)c(=O)n(C)c(=O)n3-c2ccccc2)ccc1F	942 s
COCCn1c(SCc2ccccc2Cl)nc2cc(C(=O)NC(C)C)ccc2c1=O	1010 s
O=C(CN1CC=C(c2cnn(-c3ccccc3)c2)CC1)NCc1ccccn1	594 s
COc1ccc(-n2ccc(=O)c(-c3nc(-c4ccc(Cl)c(F)c4)no3)n2)cc1	993 s
COC(=O)CNC(=O)N1Cc2ccccc2OC2(CCN(C(C)C)CC2)C1	595 s
COC(=O)c1c(NCCCN2CCCC2)c2cccc(Cl)c2[nH]c1=O	550 s
CC(C)CCNC(=O)N1CCN(c2cc(-c3ccccc3)ncn2)CC1	658 s
O=S(=O)(NCc1cccnc1-c1ccc(F)cc1)c1ccc(F)cc1	737 s
CS(=O)(=O)c1ccc(Sc2nc3ccccc3s2)c([N+](=O)[O-])c1	900 s
CN1CCN(c2ccc(NC(=O)c3ccc(Br)cc3)c(C(=O)O)c2)CC1	653 s
Cc1ccccc1Cc1nc(C2CC(=O)N(c3ccc(F)c(Cl)c3)C2)no1 (centres undefined)	1090 s
O=C(CC1CCCCC1)N1CCCC(COc2ccc(C(=O)N3CCOCC3)cc2)C1 (centres undefined)	856 s
O=C(CCc1ccccc1)NC1CCN(c2nnc3ccc(Cl)cn23)CC1	739 s
Cc1ccccc1C(=O)Nc1ccc(C(=O)N2CCCC(O)c3cc(Cl)ccc32)c(C)c1 (centres undefined)	899 s
CCc1nc(-c2csc(S(=O)(=O)N3CCC(C(=O)Nc4ccc(F)cc4C)CC3)c2)no1	963 s
CCc1ccc(NC(=O)CSc2cc(N3CCCCC3C)ncn2)cc1 (centres undefined)	1100 s
CCn1cnc2cc(CNC(=O)c3cc(C)cc(C)c3)ccc21	646 s

Now from value to molecule:

RP-LC retention time	SMILES
588 s	O=C(C(=O)N1CCN(C2CCCCC2)CC1)c1ccc[nH]1
834 s	COC(=O)CNC(=O)NC(Cc1ccc(F)cc1)Cc1ccc2c(c1)OCO2 (centres undefined)
762 s	CC(C)n1c(=O)sc2cc(S(=O)(=O)N3CCC(C(=O)NCC4CCCO4)CC3)ccc21 (centres undefined)
1090 s	COc1ccccc1N1CCN(c2cc(SCC(=O)Nc3ccc(F)c(Cl)c3)ncn2)CC1
998 s	CCN1C(=O)c2ccccc2Oc2ccc(C(=O)NCCc3ccc(Cl)cc3)cc21
1140 s	CCOC(=O)c1noc2nc(C)nc(Nc3cccc(CC)c3)c12
900 s	O=C(Nc1cc(C(F)(F)F)ccc1Cl)c1cccc(Oc2ncccn2)c1
990 s	COc1ccc(-c2cc3c(=O)n(Cc4nc(-c5cccc(OC)c5OC)oc4C)ccn3n2)cc1
928 s	O=C(Cn1cc(-c2nc(-c3ccc(Cl)cc3)no2)ccc1=O)NC1CCCC1
742 s	O=c1c(NCCc2ccccc2)nc2ccncc2n1Cc1ccccc1
1030 s	Cc1cc(C(=O)Nc2ccc(N3CCOCC3)cc2)nc2cc(-c3ccsc3)nn12
736 s	O=C(Nc1cccc(Cl)c1)N1CCC(N2CCN(Cc3ccccc3)C(=O)C2=O)CC1
603 s	CCCn1cc(C(=O)N2CCN(C3CCCCC3)CC2)c2cccnc21
1170 s	O=C(CCCc1nc(-c2ccc(Cl)cc2)no1)Nc1nc(-c2ccccc2)cs1
719 s	CN(CC1CCOC1)C(=O)c1cc(Cl)ccc1F (centres undefined)
1000 s	O=C(c1ccc(Br)cc1)N1CCc2nc(-c3ccccc3)ncc2C1
648 s	O=C(c1cnn2c(-c3ccc4c(c3)OCO4)ccnc12)N1CCN(Cc2ccc3c(c2)OCO3)CC1
832 s	O=C(NC1CC1)c1ccc(OCC2CCCN2C(=O)c2ccccc2C(F)(F)F)cc1 (centres undefined)
877 s	CCOc1ccc(NC(=O)C2CCN(S(C)(=O)=O)c3ccccc3O2)cc1 (centres undefined)
939 s	Clc1cccc(-c2nc3ccc(Cl)cn3c2Nc2ccc3c(c2)OCCO3)c1
1050 s	COc1cc(-c2noc(C3CC(=O)N(c4ccc(C)c(Cl)c4)C3)n2)cc(OC)c1OC (centres undefined)
858 s	CC(=O)c1cccc(NC(=O)Cc2ccc3ccccc3c2)c1
920 s	O=C(Nc1ccc(C(F)(F)F)cc1)NC1CCN(c2ccc(F)cc2)C1=O (centres undefined)
767 s	CCCCC(=O)N1CCc2c(c(C(=O)NCc3ccc4c(c3)OCO4)nn2C)C1
503 s	COC(=O)N1CCN(CCNC(=O)NC2CCCCC2)CC1

RP-LC retention time	SMILES
536 s	CN(CCc1ccccn1)C(=O)C1CCN(c2cn[nH]c(=O)c2)CC1
702 s	Cc1cc(-c2ccc(S(=O)(=O)N3CCC(C(=O)NCC4CC4)CC3)o2)n[nH]1
839 s	CCN(CC)S(=O)(=O)c1ccc2c(c1)CC(C(=O)N1CCCCCC1)N2C(C)=O (centres undefined)
572 s	CCCNc1cc(N2CCC(CCC(=O)NC3CCN(Cc4ccccc4)CC3)CC2)ncn1
786 s	CCC(=O)Nc1cc2c(cc1S(=O)(=O)c1ccccc1)n(CC)c(=O)n2CC
1000 s	COC(=O)c1ccc(NC(=O)N2CCOc3ccc(Cl)cc32)cc1
785 s	Cc1c(CC(=O)N2CCC(C(N)=O)CC2)c(=O)oc2cc3occ(C(C)(C)C)c3cc12
1040 s	Cc1ccc(-n2c(C)c(C)c3c(=O)n(CC(=O)N4CCc5ccccc54)cnc32)cc1
947 s	CCOC(=O)/C=C/c1ccc(C(=O)OCC)[nH]1
589 s	COc1ccc(NC(=O)CCNc2cnc3cnccn23)cc1F
630 s	CCOc1nccnc1N1CCC(N(C)C(=O)Cc2cccnc2)C1 (centres undefined)
763 s	CCC(C(=O)Nc1ccc2c(c1)OCCO2)n1cnc2nc3c(cc2c1=O)CCCC3 (centres undefined)
1050 s	O=C(Nc1ccc2c(c1)OCO2)C(=O)c1cccn1Cc1ccc(F)cc1
584 s	CC(C(=O)NN1CCOCC1)n1nc(-c2ccco2)ccc1=O (centres undefined)
892 s	Cc1ccc(NC(=O)C2CCN(S(C)(=O)=O)c3ccccc3O2)cc1 (centres undefined)
1080 s	COc1cccc(Cn2c(=O)c3sccc3n(Cc3nc(-c4ccccc4Cl)no3)c2=O)c1
1110 s	CCOC(=O)c1ccc(OC(=O)c2cn(CC)c(=O)c3ccccc23)cc1
768 s	O=C(c1cc(C2CC2)n(C2CCS(=O)(=O)C2)n1)N1CCc2ccccc21 (centres undefined)
809 s	Cc1nnc(-c2cc(C)n(CC(=O)Nc3ccc(C)c(C)c3)c2C)o1
586 s	CC1(C)CC(=O)c2cn(-c3ccccc3)c(=O)c(C(=O)N3CCN(C4CCCCC4)CC3)c2C1
815 s	CCCNC(=O)c1cn(-c2ccc(-c3nc(C4CC4)no3)cn2)cn1
681 s	CC(C)Cn1c(=O)c(-c2ccc(C(=O)NCc3ccncc3)cc2)nc2ccccc21
569 s	CCN1CCN(CCCNC(=O)c2ccc(CS(=O)c3ccc(Cl)cc3)o2)CC1 (centres undefined)
700 s	O=C(C1CCN(S(=O)(=O)N2CCOCC2)CC1)N1CCCC(c2nc(C3CCOCC3)no2)C1 (centres undefined)
